Reference: publication PMC12216609, “Inhibitors of eIF1A-ribosome interaction unveil uORF-dependent regulation of translation initiation and antitumor and antiviral effects” (The EMBO Journal, 2025)
Values joined by “and” are separate entries in the source; they are usually repeats but may differ in a detail not shown here. Identical values can stand only once. Like-named read-outs stand apart in the source and are kept apart here.

Legend:
[1] = tested on: OVCAR8 cell-derived xenograft; assay: Xenografts growth after 1Ais treatment in mice; assay type: in vivo
[2] = tested on: cap-proximal AUG GFP reporter in HEK293T cells; assay type: cell-based; settings: GFP WB densitometry; 20 µM overnight; dmso 0.965946
From the text: Translation from an AUG preceded by a very short 5'UTR (less than 30 nt) is usually inefficient and frequently bypassed, resulting in initiation from a downstream AUG, a phenomenon known as leaky scanning. […] To examine the impact of 1Ais on short 5'UTR initiation, we used a GFP reporter gene containing an AUG located 16 nt downstream from the 5' end followed by a second in-frame downstream AUG (Fig. 1F; Appendix Fig. S1B). Cells were transfected with this GFP reporter gene followed by exposure to DMSO (vehicle) and 1Ais. Initiations from upstream (US) or downstream (DS) AUGs were determined by western blot (WB) with anti-GFP antibodies and the ratio between the US and DS AUG was determined.
For the analysis of translation from very short 5'UTR and Leaky scanning, HEK293T cells were transfected with a GFP (20 ng/well) reporter gene driven by a cap-proximal and downstream AUGs (Elfakess et al, [2011]) together with a luciferase reporter gene (100 ng/well) as normalizing control and treated with 20 µM of 1Ais as described above. GFP levels were determined by Western blot (WB) (GFP antibody, Abcam #ab290) and quantified by densitometry (ImageJ) and normalized to the measured luciferase activity.
HEK293T cells were transfected with the GFP reporter gene schematically shown on the top. The first
AUG is […] from the 5’ end and the downstream AUG is in the same frame. Six hours after transfection, cells were treated with 1Ais. After overnight exposure to 1Ais, GFP expression was analyzed by WB using anti -GFP antibodies.
US/DS ratio was determined by densitometry and represents the long protein expression (upstream AUG, US) vs the […]
biological replicates. (C-D) Analysis of reporter genes mRNA levels after 1Ais treatment.

[3] = tested on: IRF7 5'UTR firefly luciferase reporter in HEK293T cells; settings: for LONG (summary - All), normalized to DMSO / SHORT (summary - All), normalized to DMSO: individual replicates, outliers excluded, DMSO = 1; for average ( long vs short ratio): summary - All; for Long 5'UTR reporter luciferase activity, normalized to DMSO (=1), single replicates: compound at 20 µM, left data block (Long), source data of Fig 1C;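 on all read-outs here: luciferase signal corrected by a co-transfected GFP reporter for transfection efficiency, read after overnight compound exposure, with Long and Short reporters differing in 5'UTR length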
eIF1A-RPS10 interaction = target: T1, eIF1A-RPS10 interaction (Homo sapiens, UniProt P46783+P47813); assay: Split-Renilla luciferase eIF1A-RPS10 interaction screen, dose-response; assay type: biochemical; settings: Appendix Table S1; read-out: IC50 from the split RL screen
T1 construct: made in house; host or cells: E. coli BL21 (PRSFduet); unpurified lysate supernatant
T1 sequence (P47813 whole entry, one chain of several): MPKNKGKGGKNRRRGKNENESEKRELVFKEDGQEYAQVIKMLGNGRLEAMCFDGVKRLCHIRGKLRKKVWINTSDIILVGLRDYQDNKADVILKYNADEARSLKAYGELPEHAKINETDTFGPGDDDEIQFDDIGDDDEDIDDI
Description: While knockdown (KD) studies of eIF1A provided valuable insights into its role in mammalian cell translation (Sehrawat et al, [2019]), this approach presents several limitations. First, it fails to elucidate the functional significance of the opposing functions of eIF1A N- and C-terminal tails with respect to scanning and start codon fidelity. Second, the extended duration required for achieving efficient knockdown, 48–72 h, impairs our ability to differentiate between direct and indirect effects. To overcome these constraints, we set out to develop small-molecule inhibitors targeting eIF1A. Guided by structural and biochemical studies showing eIF1A binding to the small ribosomal subunit at the A-site and interacting directly with RPS10 through its N-terminal tail (Haimov et al, [2017]; Passmore et al, [2007]; Sehrawat et al, [2019]), our approach focused on disrupting the interaction between eIF1A and RPS10. […] The interaction between eIF1A and RPS10 brings the two parts together, leading to the reconstitution of the enzymatic activity (Haimov et al, [2017]). In this system, the spatial arrangement of the two RL parts is critical for the enzymatic activity, making it sensitive not only to direct interference with the interacting proteins but also to changes in the conformation of the fused proteins. In the eIF1A-RPS10 split-RL pair, the C-terminus of eIF1A is fused to N-RL (Fig. 1A), in order to maintain the NTT accessible to RPS10 binding. This pair was cloned and expressed in bacteria as recombinant proteins and used to screen a library of ~50,000 small molecules from diverse sources (Ashkenazi et al, [2017]).
eIF1A-ΔC-Renilla and RPS10-ΔN-Renilla were transformed into BL21 E. coli by heat shock transformation. A bacterial starter of 5 ml LB was incubated overnight at 37 °C and transferred into 1 L LB for incubation at 37 °C until OD ~ 0.5–0.7. Next, protein expression was induced with 0.5 mM IPTG, and bacterial cells were incubated overnight at 16 °C. Bacterial cell pellet was collected after centrifugation (3000 RPM, 15 min), resuspended in 20 ml TKE buffer (Tris 10 mM, KCl 100 mM, EDTA 0.1 mM), sonicated (bath sonicator, 24 cycles of 30 s) and centrifuged again (15000 RPM, 30 min). Supernatants were collected, analyzed for RL activity, and then used for high throughput drug screen (HTS) at the Weizmann G-INCPM HTS unit as described (Ashkenazi et al, [2017]). In addition to the standard controls of this protocol, the two parts of the split RL, without eIF1A or RPS10, were tested as controls. Selected compounds were purchased from Sigma-Aldrich and Enamine. Compound powders were resuspended in DMSO for a final concentration of 10 mM and stored at −20 °C.

[4] = tested on: CUG/GUG vs AUG start codon luciferase reporters in HEK293T cells; assay: Near-cognate AUG starting codon fidelity reporter assay (GUG, CUG vs AUG); assay type: cell-based; settings: for GUG vs AUG data (%): individual repeat; for GUG vs AUG (%) Average: summary average of repeats, DMSO control average […]; for CUG vs AUG (%): CUG start codon reporter relative to AUG reporter (AUG = 100); for CUG vs AUG (%) / GUG vs AUG (%): compound at 20uM (summary head), single-experiment calculation; for GUG vs AUG (%): GUG start codon reporter relative to AUG reporter (AUG = 100)
Description: We next considered the importance of eIF1A in controlling start codon fidelity in yeast and mammalian cells (Martin-Marcos et al, [2011]; Martin-Marcos et al, [2017]; Sehrawat et al, [2019]; She et al, [2023]) and tested how inhibition of eIF1A by 1Ais affects the initiation from near-cognate AUG. The effect of 1Ais was analyzed using firefly luciferase reporters bearing either AUG (control), CUG, or GUG as the exclusive translation initiation sites. Co-transfected GFP reporter served as an internal control for transfection efficiency.
For the near-cognate AUG Starting codon fidelity reporter assay, HEK293T cells were transfected with 100 ng of the previously described luciferase reporter constructs driven either by AUG, CUG, and GUG (Tang et al, [2017]) together with GFP expressing plasmid (20 ng) as normalizing control. Luciferase and GFP levels were determined as described above.
Appendix Figure S1: (A) HEK293T cells were transfected with Luciferase reporter genes with either CUG or AUG as their exclusive starting codon. 6 hours after transfection, cells were exposed to 1Ais, and the luminescence from all constructs was measured after overnight incubation. Bars represent the ratio between luminescence from the AUG starting codon and CUG after normalization with co-transfected GFP; Error bars represent SEM, * denotes p<0.05 (T-test comparing to DMSO control), n=≥4 independent biological replicates.

NSP1 = NSP1 (Severe acute respiratory syndrome coronavirus 2, UniProt P0DTD1)
[5] = raw data calculation of one experiment, GFP normalized, AUG set to 100, compound marked (20)

O=C(Nc1ccc(S(=O)(=O)NC23CC4CC(CC(C4)C2)C3)cc1)c1ccc(Cl)cc1 [1A-3638]
Weight of tumor, average ([1]; group average): 0.2614
Weight of tumor ([1]; individual animals): 0.6521 and 0.1855 and 0.085 and 0.0594 and 0.2257 and 0.0264 and 0.562 and 0.006 and 0.5508
Tumor weight p-value (t-test vs DMSO) ([1]; t.test vs DMSO): 0.005991

O=C(Nc1nc(-c2c[nH]c3ccccc23)cs1)c1cc(=O)[nH]c2ccccc12 [1Ai-0403]
US/DS ratio, average [2]: 1.283
LONG (summary - All), normalized to DMSO ([3]; Long reporter, 5 µM): 0.54 and 1.00 and 0.95
SHORT (summary - All), normalized to DMSO ([3]; Short reporter, 5 µM): 1.05 and 0.93 and 1.12
Long: Normalized to average DMSO ([3]; data section, Long reporter, GFP-corrected, 5 µM, per experiment): 0.5423 and 1 and 0.9496
Short: Normalized to average DMSO ([3]; data section, Short reporter, GFP-corrected, 5 µM, per experiment, includes values excluded as outliers): 1.05 and 0.9341 and 1.121
average ( long vs short ratio) ([3]; 5 µM): 0.803
IC50 (eIF1A-RPS10 interaction): 17 µM
GUG vs AUG data (%) ([4]; compound at 5uM): 1.56% and 2.09% and 1.50% and 2.83%
GUG vs AUG (%) Average ([4]; compound at 5uM): 1.99%

c1csc(-c2nc(NCc3nnc4ccccn34)c3ccccc3n2)c1 [1Ai-2136]
US/DS ratio, average [2]: 0.8866
LONG (summary - All), normalized to DMSO ([3]; Long reporter, 20 µM): 0.43 and 0.72 and 0.55 and 0.54
SHORT (summary - All), normalized to DMSO ([3]; Short reporter, 20 µM): 0.63 and 0.25 and 0.98 and 0.99 and 0.71 and 0.58
Long 5'UTR reporter luciferase activity, normalized to DMSO (=1), single replicates [3]: 0.43 and 1.0233 and 1.053 and 0.724 and 0.552 and 0.5382
average ( long vs short ratio) ([3]; 20 µM): 0.813
IC50 (eIF1A-RPS10 interaction): 29 µM
GUG vs AUG data (%) ([4]; compound at 20uM): 1.58% and 2.63% and 2.62% and 2.27%
GUG vs AUG (%) Average ([4]; compound at 20uM): 2.27%

COc1ccc(CN(Cc2nn3c(=O)cc(C)nc3s2)C(C)Cc2cccs2)cc1 (stereo not shown) [1Ai-5751]
GFP reporter ratio nsp1/gfp, avg (NSP1): 0.4183
GFP reporter ratio nsp1/gfp, rep 1 (NSP1): 0.4426
GFP reporter ratio nsp1/gfp, rep 2 (NSP1): 0.3941
gfp signal, mean of duplicate wells (NSP1): 2691 and 4145
nsp1 signal, mean of duplicate wells (NSP1): 1060.5 and 1834.5
ratio (nsp1/gfp) (NSP1): 0.394 and 0.443
US/DS ratio, average [2]: 1.056
LONG (summary - All), normalized to DMSO ([3]; Long reporter, 20 µM): 0.26 and 0.28 and 0.72 and 0.89 and 0.77 and 0.31
SHORT (summary - All), normalized to DMSO ([3]; Short reporter, 20 µM): 0.74 and 0.11 and 0.73 and 0.61 and 0.46 and 0.21
Long 5'UTR reporter luciferase activity, normalized to DMSO (=1), single replicates [3]: 0.2584 and 0.2757 and 0.7216 and 0.8893 and 0.7688 and 0.3143
average ( long vs short ratio) ([3]; 20 µM): 1.128
IC50 (eIF1A-RPS10 interaction): 18 µM
GUG vs AUG data (%) ([4]; compound at 20uM): 1.65% and 1.59% and 3.31% and 1.26%
GUG vs AUG (%) Average ([4]; compound at 20uM): 1.95%

O=S(=O)(Cc1cc(Cl)c2c(c1)OCCO2)Cc1nc(-c2ccccc2)no1 [1Ai-6476]
US/DS ratio, average [2]: 0.719
LONG (summary - All), normalized to DMSO ([3]; Long reporter, 20 µM): 0.42 and 1.63 and 1.39 and 0.53
SHORT (summary - All), normalized to DMSO ([3]; Short reporter, 20 µM): 0.36 and 1.11 and 1.08 and 0.95
average ( long vs short ratio) ([3]; 20 µM): 1.134
IC50 (eIF1A-RPS10 interaction): 15 µM
GUG vs AUG data (%) ([4]; compound at 20uM): 1.75% and 1.69% and 1.77% and 1.59%
GUG vs AUG (%) Average ([4]; compound at 20uM): 1.70%
calculation: CUG (AUG = 100) [4, 5]: 6.068
calculation: GUG (AUG = 100) [4, 5]: 1.669

O=C1c2ccccc2NC(c2cc(Cl)c3c(c2)OCO3)N1C1CC1 (stereo not shown) [1Ai-6586]
US/DS ratio, average [2]: 0.8389
LONG (summary - All), normalized to DMSO ([3]; Long reporter, 20 µM): 0.0557 and 0.45 and 1.19 and 0.73
SHORT (summary - All), normalized to DMSO ([3]; Short reporter, 20 µM): 0.06 and 0.81 and 0.69 and 1.23
average ( long vs short ratio) ([3]; 20 µM): 0.871
IC50 (eIF1A-RPS10 interaction): 24 µM
CUG vs AUG (%) [4]: 6.859%
GUG vs AUG (%) [4]: 1.078%
GUG vs AUG data (%) ([4]; compound at 20uM): 1.26% and 0.96% and 1.21% and 1.81%
GUG vs AUG (%) Average ([4]; compound at 20uM): 1.31%

COC(=O)C1=C(C)NC2=C(C(=O)CC(c3ccc(F)cc3)C2)C1c1ccc(N(C)C)cc1Cl (stereo not shown) [1Ai-9162]
US/DS ratio, average [2]: 0.9825
LONG (summary - All), normalized to DMSO ([3]; Long reporter, 20 µM): 0.54 and 0.53 and 0.27 and 0.64
SHORT (summary - All), normalized to DMSO ([3]; Short reporter, 20 µM): 0.54 and 0.47 and 0.46
average ( long vs short ratio) ([3]; 20 µM): 1.009
IC50 (eIF1A-RPS10 interaction): 16 µM
CUG vs AUG (%) [4]: 9.614%
GUG vs AUG (%) [4]: 2.083%
GUG vs AUG data (%) ([4]; compound at 20uM): 2.05% and 2.20% and 2.48% and 2.61%
GUG vs AUG (%) Average ([4]; compound at 20uM): 2.33%
